Reference: patent US6737383B1, “Herbicidal oxadiazolidines” (priority 1999, dated 2004)

Key:
blackgrass = assay: Test B pre/postemergence blackgrass; assay type: in vivo, Alopecurus myosuroides
How it was run: (§1)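 Response is a visual 0-to-10 score relative to untreated plants, where 0 means no effect and 10 means complete control, taken twelve to sixteen days after application. Treatments went onto soil at planting and onto foliage of 1- to 4-leaf plants, using a surfactant-containing non-phytotoxic solvent.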

wild oat = assay: Test B pre/postemergence wild oat; assay type: in vivo, Avena fatua
How it was run: as §1

rice = assay: Test B flood test rice; assay type: in vivo, Oryza sativa
How it was run: (§2)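 Read-out is a visual response score from 0 (no effect) to 10 (complete control), assigned by comparison with untreated controls. Treatment was applied at the 2-leaf stage, and plants stayed in the greenhouse for twelve to sixteen days before scoring.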

surinam grass = assay: Test B pre/postemergence surinam grass; assay type: in vivo, Brachiaria decumbens
How it was run: as §1

purple nutsedge = assay: Test B pre/postemergence purple nutsedge; assay type: in vivo, Cyperus rotundus
How it was run: as §1

morningglory = assay: Test B pre/postemergence morningglory; assay type: in vivo, Ipomoea hederacea
How it was run: as §1

giant foxtail = assay: Test B pre/postemergence giant foxtail; assay type: in vivo, Setaria faberii
How it was run: as §1

pigweed = assay: Test B pre/postemergence pigweed; assay type: in vivo, Amaranthus retroflexus
How it was run: as §1

soybean = assay: Test B pre/postemergence soybean; assay type: in vivo, Glycine max
How it was run: as §1

velvetleaf = assay: Test B pre/postemergence velvetleaf; assay type: in vivo, Abutilon theophrasti
How it was run: as §1

smallflower flatsedge = assay: Test B flood test smallflower flatsedge; assay type: in vivo, Cyperus difformis
How it was run: as §2

crabgrass = assay: Test B pre/postemergence crabgrass; assay type: in vivo, Digitaria sanguinalis
How it was run: as §1

wheat = assay: Test B pre/postemergence wheat; assay type: in vivo, Triticum aestivum
How it was run: as §1

corn = assay: Test B pre/postemergence corn; assay type: in vivo, Zea mays
How it was run: as §1

duck salad = assay: Test B flood test duck salad; assay type: in vivo, Heteranthera limosa
How it was run: as §2

bedstraw = assay: Test B pre/postemergence bedstraw; assay type: in vivo, Galium aparine; conditions: Postemergence, Rate 250 g/ha; scale of 0 to 10, 0 is no effect, 10 is complete control
How it was run: as §1

[1] = Postemergence, Rate 62 g/ha, scale 0 to 10, 0 is no effect, 10 is complete control
[2] = Postemergence, Rate 125 g/ha, scale of 0 to 10 where 0 is no effect and 10 is complete control
[3] = Postemergence, Rate 250 g/ha, scale of 0 to 10, 0 is no effect, 10 is complete control
[4] = Preemergence, Rate 62 g/ha, scale of 0 to 10 where 0 is no effect and 10 is complete control
[5] = Preemergence, Rate 125 g/ha, scale of 0 to 10 where 0 is no effect and 10 is complete control
[6] = Preemergence, Rate 250 g/ha, scale 0 to 10 (0 no effect, 10 complete control)
[7] = Preemergence, Rate 500 g/ha, scale of 0 to 10 where 0 is no effect and 10 is complete control
[8] = Rate 500 g/ha, Postemergence, scale 0 to 10, 0 is no effect, 10 is complete control
[9] = Rate 62 g/ha, flood test species, Pre-emergence, visual evaluation after twelve to sixteen days
[10] = Rate 125 g/ha, under heading Pre-emergence, flood test species, visual evaluation after twelve to sixteen days
[11] = Rate 250 g/ha, Pre-emergence (flood test species), scale 0 to 10, 0 is no effect, 10 is complete control
[12] = Rate 500 g/ha, Pre-emergence section of Table B, 0 to 10 scale (0 no effect, 10 complete control)

`C#CC(C)n1c(=O)on(C(=O)N(c2ccc(Cl)cc2)C(C)C)c1=O` (racemic) [Compound 658] was tested, and the “Plant response rating, Blackgrass” value (blackgrass; [1]) was 0, the “Blackgrass plant response rating” value (blackgrass; [2]) was 3 and the “Blackgrass plant response rating” value (blackgrass; [3]) was 6. For the same molecule, the “Blackgrass plant response rating” value (blackgrass; [4]) was 3, the “Blackgrass plant response rating” value (blackgrass; [5]) was 7 and the “Plant response rating, Blackgrass” value (blackgrass; [6]) was 7. The “Plant response rating, Blackgrass” value (blackgrass; [7]) was 7, the “Blackgrass plant response rating” value (blackgrass; [8]) was 7 and the “Plant response rating, Wild oats” value (wild oat; [1]) was 1. The “Wild oats plant response rating” value (wild oat; [2]) was 1, the “Wild oats plant response rating” value (wild oat; [4]) was 0 and the “Wild oats plant response rating” value (wild oat; [5]) was 2. For the same molecule, the “Plant response rating, Wild oats” value (wild oat; [6]) was 3, the “Plant response rating, Wild oats” value (wild oat; [7]) was 4 and the “Wild oats plant response rating” value (wild oat; [8]) was 2. The “Plant response rating, Rice (0 to 10 scale, 0 is no effect, 10 is complete control)” value (rice; [9]) was 0, the “Rice plant response rating (0 to 10 scale, 0 is no effect, 10 is complete control)” value (rice; [10]) was 0 and the “Rice plant response rating” value (rice; [11]) was 0. For the same molecule, the “Rice plant response rating” value (rice; [12]) was 0, the “Plant response rating, B. signalgrass” value (surinam grass; [1]) was 0 and the “Plant response rating, B. signalgrass” value (surinam grass; [2]) was 0. The “B. signalgrass plant response rating” value (surinam grass; [3]) was 0, the “B. signalgrass plant response rating” value (surinam grass; [4]) was 0 and the “B. signalgrass plant response rating” value (surinam grass; [5]) was 0. The “Plant response rating, B. signalgrass” value (surinam grass; [6]) was 8, the “Plant response rating, B. signalgrass” value (surinam grass; [7]) was 8 and the “B. signalgrass plant response rating” value (surinam grass; [8]) was 0. The “Plant response rating, Nutsedge” value (purple nutsedge; [1]) was 0, the “Nutsedge plant response rating” value (purple nutsedge; [2]) was 0 and the “Nutsedge plant response rating” value (purple nutsedge; [4]) was 0. The “Nutsedge plant response rating” value (purple nutsedge; [5]) was 0, the “Plant response rating, Nutsedge” value (purple nutsedge; [6]) was 0 and the “Plant response rating, Nutsedge” value (purple nutsedge; [7]) was 2. The “Nutsedge plant response rating” value (purple nutsedge; [8]) was 2, the “Plant response rating, Morningglory” value (morningglory; [1]) was 7 and the “Morningglory plant response rating” value (morningglory; [2]) was 7. For the same molecule, the “Morningglory plant response rating” value (morningglory; [3]) was 7, the “Morningglory plant response rating” value (morningglory; [4]) was 0 and the “Morningglory plant response rating” value (morningglory; [5]) was 0. The “Plant response rating, Morningglory” value (morningglory; [6]) was 0, the “Plant response rating, Morningglory” value (morningglory; [7]) was 0 and the “Morningglory plant response rating” value (morningglory; [8]) was 10. For the same molecule, the “Plant response rating, Giant foxtail” value (giant foxtail; [1]) was 0, the “Giant foxtail plant response rating” value (giant foxtail; [2]) was 3 and the “Giant foxtail plant response rating” value (giant foxtail; [3]) was 7. The “Giant foxtail plant response rating” value (giant foxtail; [4]) was 9, the “Giant foxtail plant response rating” value (giant foxtail; [5]) was 9 and the “Plant response rating, Giant foxtail” value (giant foxtail; [6]) was 9. The “Plant response rating, Giant foxtail” value (giant foxtail; [7]) was 10, the “Giant foxtail plant response rating” value (giant foxtail; [8]) was 6 and the “Plant response rating, Redroot pigweed” value (pigweed; [1]) was 6. The “Redroot pigweed plant response rating” value (pigweed; [2]) was 6, the “Redroot pigweed plant response rating” value (pigweed; [4]) was 2 and the “Redroot pigweed plant response rating” value (pigweed; [5]) was 9. For the same molecule, the “Plant response rating, Redroot pigweed” value (pigweed; [6]) was 9, the “Plant response rating, Redroot pigweed” value (pigweed; [7]) was 10 and the “Redroot pigweed plant response rating” value (pigweed; [8]) was 7. The “Plant response rating, Soybean” value (soybean; [1]) was 2, the “Soybean plant response rating” value (soybean; [2]) was 4 and the “Soybean plant response rating” value (soybean; [4]) was 0. The “Soybean plant response rating” value (soybean; [5]) was 0, the “Plant response rating, Soybean” value (soybean; [6]) was 0 and the “Plant response rating, Soybean” value (soybean; [7]) was 3. The “Soybean plant response rating” value (soybean; [8]) was 4, the “Plant response rating, Velvetleaf” value (velvetleaf; [1]) was 0 and the “Velvetleaf plant response rating” value (velvetleaf; [2]) was 0. The “Velvetleaf plant response rating” value (velvetleaf; [4]) was 0, the “Velvetleaf plant response rating” value (velvetleaf; [5]) was 0 and the “Plant response rating, Velvetleaf” value (velvetleaf; [6]) was 3. The “Plant response rating, Velvetleaf” value (velvetleaf; [7]) was 5, the “Velvetleaf plant response rating” value (velvetleaf; [8]) was 6 and the “Plant response rating, S. Flatsedge (0 to 10 scale, 0 is no effect, 10 is complete control)” value (smallflower flatsedge; [9]) was 0. The “S. Flatsedge plant response rating (0 to 10 scale, 0 is no effect, 10 is complete control)” value (smallflower flatsedge; [10]) was 0, the “S. Flatsedge plant response rating” value (smallflower flatsedge; [11]) was 0 and the “S. Flatsedge plant response rating” value (smallflower flatsedge; [12]) was 0. The “Plant response rating, Crabgrass” value (crabgrass; [1]) was 0, the “Crabgrass plant response rating” value (crabgrass; [2]) was 2 and the “Crabgrass plant response rating” value (crabgrass; [3]) was 2. For the same molecule, the “Crabgrass plant response rating” value (crabgrass; [4]) was 3, the “Crabgrass plant response rating” value (crabgrass; [5]) was 7 and the “Plant response rating, Crabgrass” value (crabgrass; [6]) was 8. The “Plant response rating, Crabgrass” value (crabgrass; [7]) was 9, the “Plant response rating, Wheat” value (wheat; [1]) was 0 and the “Wheat plant response rating” value (wheat; [2]) was 0. For the same molecule, the “Wheat plant response rating” value (wheat; [4]) was 0, the “Wheat plant response rating” value (wheat; [5]) was 0 and the “Plant response rating, Wheat” value (wheat; [6]) was 0. For the same molecule, the “Plant response rating, Wheat” value (wheat; [7]) was 3, the “Wheat plant response rating” value (wheat; [8]) was 0 and the “Plant response rating, Corn” value (corn; [1]) was 0. For the same molecule, the “Corn plant response rating” value (corn; [2]) was 0, the “Corn plant response rating” value (corn; [3]) was 0 and the “Corn plant response rating” value (corn; [4]) was 0. The “Corn plant response rating” value (corn; [5]) was 0, the “Plant response rating, Corn” value (corn; [6]) was 2 and the “Plant response rating, Corn” value (corn; [7]) was 2. For the same molecule, the “Corn plant response rating” value (corn; [8]) was 0, the “Plant response rating, Ducksalad (0 to 10 scale, 0 is no effect, 10 is complete control)” value (duck salad; [9]) was 0 and the “Ducksalad plant response rating (0 to 10 scale, 0 is no effect, 10 is complete control)” value (duck salad; [10]) was 0. The “Ducksalad plant response rating” value (duck salad; [11]) was 0, the “Ducksalad plant response rating” value (duck salad; [12]) was 0 and the “Bedstraw plant response rating” value (bedstraw) was 0.
